Laboratory results published in patent publication US20240279218A1 (Hoffmann-La Roche Inc., priority 2016, published 2024).
Blank lines part the entries; values can stand above or below the molecule they belong to.

Key:
h-GABA-A α5β3γ2 [1] = target: T1, h-GABA-A α5β3γ2 (Homo sapiens (Human), UniProt P18507+P31644); assay: [3H]flumazenil competition binding assay, membranes of HEK293 cells expressing human GABAA receptors; conditions: displacement of [3H]flumazenil 0.5 nM, HEK293 cells expressing human receptors, mean of two determinations; read-out: Ki h-GABA-A α5β3γ2
In short: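 Displacement of [3H]flumazenil from membranes of HEK293 cells transiently expressing human α5β3γ2 receptors, in Krebs-tris buffer pH 7.5. Incubation to equilibrium, 1 h at 4° C., then filtration and scintillation counting. Ki is the mean of two determinations.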

h-GABA-A α5β3γ2 [2] = target: T1, h-GABA-A α5β3γ2; assay: Two-electrode voltage clamp electrophysiology in Xenopus oocytes expressing GABAA receptors, modulation of GABA EC20 current; type: cell-based; conditions: Xenopus oocytes; for Efficacy (GABA) %: % modulation of GABA EC20 = 100*(Fold increase−1); for Fold increase h-GABA-A α5β3γ2 oocyte: GABA EC20, test compound at approx. 30 fold its Ki
In short: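 Values are % modulation of an EC20 GABA response, derived point by point from the ratio of compound-exposed versus control current traces (extremum taken, 100×(fold−1)). Recordings used oocytes injected with human α5, β3, γ2 mRNA, clamped at −80 mV at room temperature, at least 3 oocytes each.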

SMILES: Cc1ccc(-c2noc(C)c2COc2ccc(C(=O)N3CC(C#N)C3)nn2)cn1 [Example 84, 1-(6-((5-methyl-3-(6-methylpyridin-3-yl)isoxazol-4-yl)methoxy)pyridazine-3-carbonyl)azetidine-3-carbonitrile]
- Ki (h-GABA-A α5β3γ2 [1]): 19 nM
- Efficacy (GABA) % (h-GABA-A α5β3γ2 [2]): 54%
- Fold increase h-GABA-A α5β3γ2 oocyte (h-GABA-A α5β3γ2 [2]): 1.54

SMILES: Cc1ccc(-c2noc(C)c2COc2cnc(C(=O)NC3CCC(F)(F)CC3)cn2)cn1 [Example 86, N-(4,4-difluorocyclohexyl)-5-((5-methyl-3-(6-methyl-3-pyridyl)isoxazol-4-yl)methoxy)pyrazine-2-carboxamide]
- Ki (h-GABA-A α5β3γ2 [1]): 17 nM
- Efficacy (GABA) % (h-GABA-A α5β3γ2 [2]): 120%
- Fold increase h-GABA-A α5β3γ2 oocyte (h-GABA-A α5β3γ2 [2]): 2.2

SMILES: Cc1ccc(-c2noc(C)c2COc2cnc(C(=O)N[C@@H]3CCOC3)cn2)cn1 [Example 89, (R)-5-((5-Methyl-3-(6-methylpyridin-3-yl)isoxazol-4-yl)methoxy)-N-(tetrahydrofuran-3-yl)pyrazine-2-carboxamide]
- Ki (h-GABA-A α5β3γ2 [1]): 13.1 nM
- Efficacy (GABA) % (h-GABA-A α5β3γ2 [2]): 31%
- Fold increase h-GABA-A α5β3γ2 oocyte (h-GABA-A α5β3γ2 [2]): 1.31

SMILES: Cc1ccc(-c2noc(C)c2COc2cnc(C(=O)NCC3CC3)cn2)cn1 [Example 95, N-(cyclopropylmethyl)-5-((5-methyl-3-(6-methylpyridin-3-yl)isoxazol-4-yl)methoxy)pyrazine-2-carboxamide]
- Ki (h-GABA-A α5β3γ2 [1]): 13.4 nM
- Efficacy (GABA) % (h-GABA-A α5β3γ2 [2]): 67%
- Fold increase h-GABA-A α5β3γ2 oocyte (h-GABA-A α5β3γ2 [2]): 1.67

SMILES: Cc1ccc(-c2noc(C)c2COc2cc3c(cn2)C(=O)N(C2CCC(F)(F)CC2)C3)cn1 [Example 96, 2-(4,4-difluorocyclohexyl)-6-((5-methyl-3-(6-methylpyridin-3-yl)isoxazol-4-yl)methoxy)-1H-pyrrolo[3,4-c]pyridin-3(2H)-one]
- Ki (h-GABA-A α5β3γ2 [1]): 7.2 nM
- Efficacy (GABA) % (h-GABA-A α5β3γ2 [2]): 88%
- Fold increase h-GABA-A α5β3γ2 oocyte (h-GABA-A α5β3γ2 [2]): 1.88

SMILES: Cc1ccc(-c2noc(C)c2COc2ccc(C(=O)NC3(C)CCOCC3)nn2)cn1 [Example 97, 6-((5-methyl-3-(6-methylpyridin-3-yl)isoxazol-4-yl)methoxy)-N-(4-methyltetrahydropyran-4-yl)pyridazine-3-carboxamide]
- Ki (h-GABA-A α5β3γ2 [1]): 13.6 nM
- Efficacy (GABA) % (h-GABA-A α5β3γ2 [2]): 71%
- Fold increase h-GABA-A α5β3γ2 oocyte (h-GABA-A α5β3γ2 [2]): 1.71

SMILES: Cc1ccc(-c2noc(C)c2COc2cnc(C(=O)N[C@@H]3CCCOC3)cn2)cn1 [Example 98, (R)-5-((5-methyl-3-(6-methylpyridin-3-yl)isoxazol-4-yl)methoxy)-N-(tetrahydropyran-3-yl)pyrazine-2-carboxamide]
- Ki (h-GABA-A α5β3γ2 [1]): 62.2 nM
- Efficacy (GABA) % (h-GABA-A α5β3γ2 [2]): 76%
- Fold increase h-GABA-A α5β3γ2 oocyte (h-GABA-A α5β3γ2 [2]): 1.76

SMILES: Cc1ccc(-c2noc(C)c2COc2ccc(C(=O)N[C@@H]3CCCOC3)nn2)cn1 [Example 99, (R)-6-((5-methyl-3-(6-methylpyridin-3-yl)isoxazol-4-yl)methoxy)-N-(tetrahydropyran-3-yl)pyridazine-3-carboxamide]
- Ki (h-GABA-A α5β3γ2 [1]): 6.8 nM
- Efficacy (GABA) % (h-GABA-A α5β3γ2 [2]): 73%
- Fold increase h-GABA-A α5β3γ2 oocyte (h-GABA-A α5β3γ2 [2]): 1.73

SMILES: Cc1ccc(-c2noc(C)c2COc2cnc(C(=O)NC3CC4(COC4)C3)cn2)cn1 [Example 101, 5-((5-methyl-3-(6-methylpyridin-3-yl)isoxazol-4-yl)methoxy)-N-(2-oxaspiro[3.3]heptan-6-yl)pyrazine-2-carboxamide]
- Ki (h-GABA-A α5β3γ2 [1]): 50.6 nM
- Efficacy (GABA) % (h-GABA-A α5β3γ2 [2]): 82%
- Fold increase h-GABA-A α5β3γ2 oocyte (h-GABA-A α5β3γ2 [2]): 1.82

SMILES: Cc1ccc(-c2noc(C)c2COc2cnc(C(=O)N[C@H]3CC[C@](C)(O)CC3)cn2)cn1 [Example 105, N-(trans-4-hydroxy-4-methylcyclohexyl)-5-((5-methyl-3-(6-methylpyridin-3-yl)isoxazol-4-yl)methoxy)pyrazine-2-carboxamide]
- Ki (h-GABA-A α5β3γ2 [1]): 22.7 nM
- Efficacy (GABA) % (h-GABA-A α5β3γ2 [2]): 101%
- Fold increase h-GABA-A α5β3γ2 oocyte (h-GABA-A α5β3γ2 [2]): 2.01

Continued, values first:

- Ki (h-GABA-A α5β3γ2 [1]): 24.3 nM
- Efficacy (GABA) % (h-GABA-A α5β3γ2 [2]): 42%
- Fold increase h-GABA-A α5β3γ2 oocyte (h-GABA-A α5β3γ2 [2]): 1.42
SMILES: Cc1ccc(-c2noc(C)c2COc2cnc(C(=O)NCC(F)(F)F)cn2)cn1 [Example 78, 5-((5-methyl-3-(6-methyl-3-pyridyl)isoxazol-4-yl)methoxy)-N-(2,2,2-trifluoroethyl)pyrazine-2-carboxamide]

- Ki (h-GABA-A α5β3γ2 [1]): 11.3 nM
- Efficacy (GABA) % (h-GABA-A α5β3γ2 [2]): 96%
- Fold increase h-GABA-A α5β3γ2 oocyte (h-GABA-A α5β3γ2 [2]): 1.96
SMILES: Cc1ccc(-c2noc(C)c2COc2ccc(C(=O)NC(C)(C)CCO)nn2)cn1 [Example 79, N-(4-hydroxy-2-methylbutan-2-yl)-6-((5-methyl-3-(6-methylpyridin-3-yl)isoxazol-4-yl)methoxy)pyridazine-3-carboxamide]

- Ki (h-GABA-A α5β3γ2 [1]): 5 nM
- Efficacy (GABA) % (h-GABA-A α5β3γ2 [2]): 96%
- Fold increase h-GABA-A α5β3γ2 oocyte (h-GABA-A α5β3γ2 [2]): 1.96
SMILES: Cc1ccc(-c2noc(C)c2COc2ccc(C(=O)NC3(C)COC3)nn2)cn1 [Example 83, 6-((5-methyl-3-(6-methylpyridin-3-yl)isoxazol-4-yl)methoxy)-N-(3-methyloxetan-3-yl)pyridazine-3-carboxamide]

- Ki (h-GABA-A α5β3γ2 [1]): 8.1 nM
- Efficacy (GABA) % (h-GABA-A α5β3γ2 [2]): 80%
- Fold increase h-GABA-A α5β3γ2 oocyte (h-GABA-A α5β3γ2 [2]): 1.8
SMILES: Cc1ccc(-c2noc(C)c2COc2ccc(C(=O)N[C@H]3CCOC3)nn2)cn1 [Example 87, (S)-6-((5-methyl-3-(6-methylpyridin-3-yl)isoxazol-4-yl)methoxy)-N-(tetrahydrofuran-3-yl)pyridazine-3-carboxamide]

- Ki (h-GABA-A α5β3γ2 [1]): 40.9 nM
- Efficacy (GABA) % (h-GABA-A α5β3γ2 [2]): 68%
- Fold increase h-GABA-A α5β3γ2 oocyte (h-GABA-A α5β3γ2 [2]): 1.68
SMILES: CC[C@@H](CC#N)NC(=O)c1ccc(OCc2c(-c3ccc(C)nc3)noc2C)nn1 [Example 88, (S)—N-(1-cyanobutan-2-yl)-6-((5-methyl-3-(6-methylpyridin-3-yl)isoxazol-4-yl)methoxy)pyridazine-3-carboxamide]

- Ki (h-GABA-A α5β3γ2 [1]): 16.7 nM
- Efficacy (GABA) % (h-GABA-A α5β3γ2 [2]): 37%
- Fold increase h-GABA-A α5β3γ2 oocyte (h-GABA-A α5β3γ2 [2]): 1.37
SMILES: Cc1ccc(-c2noc(C)c2COc2cnc(C(=O)NCCO)cn2)cn1 [Example 90, N-(2-Hydroxyethyl)-5-((5-methyl-3-(6-methylpyridin-3-yl)isoxazol-4-yl)methoxy)pyrazine-2-carboxamide]

- Ki (h-GABA-A α5β3γ2 [1]): 5.5 nM
- Efficacy (GABA) % (h-GABA-A α5β3γ2 [2]): 140%
- Fold increase h-GABA-A α5β3γ2 oocyte (h-GABA-A α5β3γ2 [2]): 2.4
SMILES: Cc1ccc(-c2noc(C)c2COc2cc3c(cn2)C(=O)N(C2CCS(=O)(=O)CC2)C3)cn1 [Example 91, 2-(1,1-dioxothian-4-yl)-6-((5-methyl-3-(6-methylpyridin-3-yl)-1,2-oxazol-4-yl)methoxy)-1H-pyrrolo[3,4-c]pyridin-3-one]

- Ki (h-GABA-A α5β3γ2 [1]): 10 nM
- Efficacy (GABA) % (h-GABA-A α5β3γ2 [2]): 92%
- Fold increase h-GABA-A α5β3γ2 oocyte (h-GABA-A α5β3γ2 [2]): 1.92
SMILES: Cc1ccc(-c2noc(C)c2COc2cnc(C(=O)NC3CCS(=O)(=O)C3)cn2)cn1 (stereo not drawn) [Example 94, N-(1,1-dioxothiolan-3-yl)-5-((5-methyl-3-(6-methylpyridin-3-yl)-1,2-oxazol-4-yl)methoxy)pyrazine-2-carboxamide]

- Ki (h-GABA-A α5β3γ2 [1]): 8.5 nM
- Efficacy (GABA) % (h-GABA-A α5β3γ2 [2]): 70%
- Fold increase h-GABA-A α5β3γ2 oocyte (h-GABA-A α5β3γ2 [2]): 1.7
SMILES: Cc1ccc(-c2noc(C)c2COc2ccc(C(=O)NC3CC4(COC4)C3)nn2)cn1 [Example 100, 6-((5-methyl-3-(6-methylpyridin-3-yl)isoxazol-4-yl)methoxy)-N-(2-oxaspiro[3.3]heptan-6-yl)pyridazine-3-carboxamide]

- Ki (h-GABA-A α5β3γ2 [1]): 20.7 nM
- Efficacy (GABA) % (h-GABA-A α5β3γ2 [2]): 21%
- Fold increase h-GABA-A α5β3γ2 oocyte (h-GABA-A α5β3γ2 [2]): 1.21
SMILES: Cc1ccc(-c2noc(C)c2COc2cnc(C(=O)N[C@H]3CC[C@@H](C(F)(F)F)CC3)cn2)cn1 [Example 102, 5-((5-methyl-3-(6-methylpyridin-3-yl)isoxazol-4-yl)methoxy)-N-(cis-4-(trifluoromethyl)cyclohexyl)pyrazine-2-carboxamide]

- Ki (h-GABA-A α5β3γ2 [1]): 79 nM
- Efficacy (GABA) % (h-GABA-A α5β3γ2 [2]): 81%
- Fold increase h-GABA-A α5β3γ2 oocyte (h-GABA-A α5β3γ2 [2]): 1.81
SMILES: Cc1ccc(-c2noc(C)c2COc2ccc(C(=O)N[C@H]3CCCOC3)nn2)cn1 [Example 103, (S)-6-((5-methyl-3-(6-methylpyridin-3-yl)isoxazol-4-yl)methoxy)-N-(tetrahydropyran-3-yl)pyridazine-3-carboxamide]

- Ki (h-GABA-A α5β3γ2 [1]): 66.3 nM
- Efficacy (GABA) % (h-GABA-A α5β3γ2 [2]): 43%
- Fold increase h-GABA-A α5β3γ2 oocyte (h-GABA-A α5β3γ2 [2]): 1.43
SMILES: Cc1ccc(-c2noc(C)c2COc2cnc(C(=O)N[C@H]3CC[C@@](C)(O)CC3)cn2)cn1 [Example 104, N-(cis-4-hydroxy-4-methylcyclohexyl)-5-((5-methyl-3-(6-methylpyridin-3-yl)isoxazol-4-yl)methoxy)pyrazine-2-carboxamide]

- Ki (h-GABA-A α5β3γ2 [1]): 60.3 nM
- Efficacy (GABA) % (h-GABA-A α5β3γ2 [2]): 64%
- Fold increase h-GABA-A α5β3γ2 oocyte (h-GABA-A α5β3γ2 [2]): 1.64
SMILES: Cc1ccc(-c2noc(C)c2COc2ccc(C(=O)NC3(C)CCOCC3)cn2)cn1 [Example 106, 6-((5-methyl-3-(6-methylpyridin-3-yl)isoxazol-4-yl)methoxy)-N-(4-methyltetrahydropyran-4-yl)nicotinamide]
